Data reported in patent US6808877B2, “Ligands for FPR class receptors that induce a host immune response to a pathogen or inhibit HIV infection” (priority 2000, dated 2004).
Where no end group is shown, it is not given here.

Experiments:
[1] = test system: human neutrophils; settings: N-formylated or N-acetylated; cited from earlier work
[2] = target: T1, FPRL1(LXA4R) (Homo sapiens, UniProt P25090); settings: CHO cells transfected with FPRL1(LXA4R); cited from earlier work
T1 construct: host or cells: CHO cells
T1 sequence (P25090 1-351): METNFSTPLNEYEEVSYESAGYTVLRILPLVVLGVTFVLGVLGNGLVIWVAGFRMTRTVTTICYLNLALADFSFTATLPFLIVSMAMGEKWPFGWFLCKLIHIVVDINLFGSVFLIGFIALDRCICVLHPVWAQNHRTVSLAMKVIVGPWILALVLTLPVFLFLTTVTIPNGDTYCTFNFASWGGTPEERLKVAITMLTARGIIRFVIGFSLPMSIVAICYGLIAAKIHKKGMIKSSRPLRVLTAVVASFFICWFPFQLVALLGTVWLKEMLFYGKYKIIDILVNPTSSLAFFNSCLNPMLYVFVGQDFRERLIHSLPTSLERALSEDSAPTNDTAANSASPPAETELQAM

[3] = target: T1, FPRL1(LXA4R); settings: CHO cells transfected with FPRL1(LXA4R); cited from earlier work; remark: listed apart in the source
[4] = target: T2, FPRL1 (Homo sapiens, UniProt P25090); test: 3H-fMLP binding to FPRL1/293 cells
T2 construct: expressed in transfected cells; host or cells: HEK 293
T2 sequence (P25090 1-351): T1 sequence (P25090 1-351)
Description: The cells were then washed with ice-cold PBS (phosphate buffered saline) and filtered onto Whatman discs. The radioactivity associated with the cells was measured with a β counter.
The samples were incubated under constant rotation for 30 minutes at 37° C. After incubation, the samples were filtered onto Whatman GF/C discs (Whatman International Ltd., Kent, UK) on a 12-well manifold followed by extensive washing with ice-cold phosphate-buffered saline (PBS). The discs were air-dried at 65° C., submerged in liquid scintilation cocktail, and counted for β emision.

Met-Ile-Leu-Phe-Phe-OH (MILFF-OH) [ID; No. 2]
potency in the induction of Ca2+ flux relative to fMLP [1]: more potent than parental fMLP

CCCCC[C@H](O)/C=C/C=C\C=C\C=C\[C@@H](O)[C@@H](O)CCCC(=O)O [LXA4, lipoxin A4]
binding affinity [2]: high affinity
GTPase activity and release of esterified arachidonate [3]: increased GTPase activity and the release of esterified arachidonate

CSCC[C@H](NC=O)C(=O)N[C@@H](CC(C)C)C(=O)N[C@@H](Cc1ccccc1)C(=O)O [^3H-fMLP]
binding to cells [4]: did not significantly bind
